Tests used:
[1] = Half life in rat liver microsome; type: ADME; conditions: liver microsomes
Huh-7 = experiment: Upregulation of SREB1c mRNA level in human HuH7 cells; type: functional, cell-based
J774 = experiment: cells; conditions: Mus musculus
HepG2 = experiment: cells; conditions: Homo sapiens
[2] = target: T1, Oxysterols receptor LXR-alpha (Homo sapiens, UniProt Q13133); experiment: Displacement of [3H]T0901317 from LXRalpha ligand binding domain
T1 sequence (Q13133 whole entry): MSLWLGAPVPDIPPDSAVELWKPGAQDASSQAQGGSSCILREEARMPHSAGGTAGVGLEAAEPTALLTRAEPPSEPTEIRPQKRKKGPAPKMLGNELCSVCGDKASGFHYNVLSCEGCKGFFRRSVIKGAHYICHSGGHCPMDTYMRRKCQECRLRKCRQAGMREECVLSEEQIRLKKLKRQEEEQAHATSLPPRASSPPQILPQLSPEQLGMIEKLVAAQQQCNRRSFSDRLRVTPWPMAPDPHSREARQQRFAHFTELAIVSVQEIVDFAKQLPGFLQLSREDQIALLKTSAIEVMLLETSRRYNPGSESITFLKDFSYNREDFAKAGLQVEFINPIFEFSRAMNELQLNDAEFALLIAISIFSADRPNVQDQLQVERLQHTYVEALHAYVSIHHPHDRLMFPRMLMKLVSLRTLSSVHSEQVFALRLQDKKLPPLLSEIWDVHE

[3] = Half life in human liver microsome; type: ADME; conditions: liver microsomes
[4] = Oral bioavailability in C57 mouse at 10 mg/kg; type: ADME, organism-based; conditions: in vivo
[5] = Cmax in C57 mouse at 10 mg/kg, po; type: ADME, organism-based; design: dose 10 mg/kg, route oral; conditions: in vivo
[6] = AUC (0 to infinity) in C57 mouse at 10 mg/kg, po; type: ADME, organism-based; design: time infinity, dose 10 mg/kg, route oral; conditions: plasma
[7] = Tmax in C57 mouse at 10 mg/kg, po; type: ADME, organism-based; design: dose 10 mg/kg, route oral; conditions: in vivo
[8] = Half life in C57 mouse at 10 mg/kg, po; type: ADME, organism-based; design: dose 10 mg/kg, route oral; conditions: in vivo
[9] = target: Oxysterols receptor LXR-beta (Homo sapiens, UniProt P55055); experiment: Displacement of [3H]T0901317 from LXRbeta ligand binding domain
Oxysterols receptor LXR-beta, sequence (P55055 whole entry, the tested form may be a part): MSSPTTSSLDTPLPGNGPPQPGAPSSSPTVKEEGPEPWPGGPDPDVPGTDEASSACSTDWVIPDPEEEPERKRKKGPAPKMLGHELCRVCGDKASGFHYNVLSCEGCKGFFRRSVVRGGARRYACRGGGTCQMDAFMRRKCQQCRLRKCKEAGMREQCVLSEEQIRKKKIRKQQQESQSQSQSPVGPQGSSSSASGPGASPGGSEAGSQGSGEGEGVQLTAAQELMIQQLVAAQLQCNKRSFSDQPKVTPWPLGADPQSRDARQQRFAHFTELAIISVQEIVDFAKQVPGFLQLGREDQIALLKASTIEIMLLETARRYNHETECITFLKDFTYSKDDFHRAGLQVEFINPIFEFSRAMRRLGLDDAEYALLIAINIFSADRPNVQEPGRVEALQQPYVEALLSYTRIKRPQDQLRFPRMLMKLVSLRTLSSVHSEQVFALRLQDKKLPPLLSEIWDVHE

| half-life [1] | EC50 (Huh-7) | EC50 (J774) | EC50 (HepG2) | half-life [3] | Structure (SMILES) | other results |
| --- | --- | --- | --- | --- | --- | --- |
| > 30 min | 0.052 µM | 0.023 µM | 0.023 µM |  | Cc1cnc2c(C(F)(F)F)cccc2c1-c1cccc(-c2cccc(S(C)(=O)=O)c2)c1 |  |
| > 30 min |  |  |  | > 30 min | Cc1cnc2c(C(F)(F)F)cccc2c1-c1cccc(-c2ccc(S(C)(=O)=O)cc2)c1 | IC50 [2]: > 1 µM |
| > 30 min | 0.44 µM | 0.077 µM | 0.077 µM | > 30 min | CS(=O)(=O)c1cccc(-c2cccc(-c3ccnc4c(C(F)(F)F)cccc34)c2)c1 | bioavailability [4]: 100%; Cmax [5]: 106 ng/mL; AUC(0-inf) [6]: 3010 ng·h/mL; Tmax [7]: 60 min; half-life [8]: 834 min |
| > 30 min |  |  |  | > 30 min | CS(=O)(=O)c1ccc(-c2cccc(-c3ccnc4c(C(F)(F)F)cccc34)c2)cc1 | IC50 [9]: > 1 µM; IC50 [2]: > 1 µM |
| > 30 min | 0.008 µM | 0.0004 µM | 0.0004 µM | > 30 min | CCCc1cnc2c(C(F)(F)F)cccc2c1-c1cccc(-c2cccc(S(C)(=O)=O)c2)c1 |  |
| > 30 min | 0.132 µM | 0.011 µM | 0.133 µM | > 30 min | CS(=O)(=O)c1cc(-c2cccc(-c3ccnc4c(C(F)(F)F)cccc34)c2)c(F)cc1F |  |
| 19 min |  |  |  | > 30 min | Cc1cnc2c(C(F)(F)F)cccc2c1-c1cccc(-c2ccc(F)c(S(C)(=O)=O)c2)c1 |  |
| > 30 min |  |  |  | > 30 min | Cc1cnc2c(C(F)(F)F)cccc2c1-c1cccc(-c2cc(S(C)(=O)=O)c(F)cc2F)c1 |  |
| 12 min |  | 0.14 µM | 0.041 µM | > 30 min | CS(=O)(=O)c1cc(-c2cccc(-c3ccnc4c(C(F)(F)F)cccc34)c2)ccc1F |  |
| > 30 min | 0.006 µM | 0.0005 µM | 0.0005 µM | > 30 min | CC(C)c1cnc2c(C(F)(F)F)cccc2c1-c1cccc(-c2cccc(S(C)(=O)=O)c2)c1 |  |
| 16 min |  |  |  |  | CS(=O)(=O)c1cccc(-c2cccc(-c3c(Cc4ccccc4)cnc4c(C(F)(F)F)cccc34)c2)c1 |  |
| 7 min | 0.571 µM | 0.571 µM | 0.571 µM | 27 min | CS(=O)(=O)c1ccc(-c2cccc(-c3c(Cc4ccccc4)cnc4c(C(F)(F)F)cccc34)c2)cc1 |  |
| > 30 min | 0.008 µM | 0.0007 µM | 0.0007 µM | > 30 min | CCc1cnc2c(C(F)(F)F)cccc2c1-c1cccc(-c2cccc(S(C)(=O)=O)c2)c1 |  |
| > 30 min | 0.521 µM | 0.156 µM | 0.156 µM | > 30 min | CCS(=O)(=O)c1cccc(-c2cccc(-c3ccnc4c(C(F)(F)F)cccc34)c2)c1 |  |
| > 30 min | 0.25 µM | 0.19 µM | 0.19 µM | > 30 min | CCS(=O)(=O)c1cccc(-c2cccc(-c3c(C)cnc4c(C(F)(F)F)cccc34)c2)c1 |  |
| 27 min |  |  |  | > 30 min | Cc1ccc(-c2cccc(-c3c(C)cnc4c(C(F)(F)F)cccc34)c2)cc1S(C)(=O)=O |  |
|  |  |  |  | > 30 min | COc1ccc(-c2cccc(-c3c(C)cnc4c(C(F)(F)F)cccc34)c2)cc1S(C)(=O)=O | IC50 [2]: > 1 µM |
| > 30 min | 0.036 µM |  | 0.107 µM | > 30 min | O=S(=O)(c1ccccc1)N(CC(F)(F)F)c1ccc(C(O)(C(F)(F)F)C(F)(F)F)cc1 [T091317] |  |

— ChEMBL document CHEMBL1158561, “Synthesis of 4-(3-biaryl)quinoline sulfones as potent liver X receptor agonists” (Bioorg Med Chem Lett, 2010)
